The values that follow come from patent US20090137496A1, “Use of Active Ingredients Containing Hydroxystilbene for Preventing and/or Treating Osteoporosis” (MATSUSHITA ELECTRIC INSUTRIAL CO., LTD., priority 2005, published 2009).

Entries after “also recorded” stand apart in the source; their conditions may differ.

Series [1] in a line: Dissolving tests with ERr 731 in ethanol and glycerol. The series is classed as physicochemical.
A short description of series [2]: Accumulation of ERr 731 ingredients in dog plasma, 100/300/1000 mg/kg/day, day 1. The series is classed as in vivo, dog (beagle). The note with it: male and female dogs, ERr 731 100, 300, 1000 mg/kg/day, day 1. As to the method: (§1) These plasma samples were processed as follows: 500 μl of plasma were mixed with 25 μl of an internal standard working solution (2.5 ng/μl rhaponticin or rhapontigenin in methanol) and then mixed with 500 μl of isotonic NaCl solution and 2.5 ml of diethyl ether/butanol (9/1; v/v). After shaking and centrifugation (10 minutes at 4600 rpm), about 2 ml of the supernatant were removed and dried under a stream of nitrogen (at 60° C.). The pellet was taken up in 50 μl of methanol. Addition of 200 μl of distilled water was followed by renewed mixing, and 200 μl were pipetted into autosampler tubes (light-protected). 30 μl of the samples were injected for analysis into an LC-MS/MS system (PE Sciex API 3000). Chromatographic separation of the analytes took place on a Phenomenex Polymer X column with a gradient of an ammonium buffer solution and an acetonitrile/methanol mixture as mobile phase.
On day 1, 5 ml of blood were taken from the animals after 0, 0.5, 1, 2, 4, 8 and 24 hours in each case, and plasma was obtained. The analysis as described in section a) was carried out thereon in order to detect rhaponticin, deoxyrhaponticin, rhapontigenin, deoxyrhapontigenin, resveratrol and piceatannol in blood. The results of the test are depicted in FIG. 2a.

The next series concerns the target T1, ERβ (Homo sapiens, UniProt Q92731).
T1 construct: host or cells: U2OS (human osteosarcoma)
The series is described as follows: ERβ activation in the osteosarcoma cell line U2OS. The series is classed as cell-based.

For the next series, the target named is T2, ERα (Homo sapiens, UniProt P03372).
T2 construct: host or cells: U2OS-ERα (human osteosarcoma), stably transfected, pSG5 vector
T2 sequence (P03372 1-595): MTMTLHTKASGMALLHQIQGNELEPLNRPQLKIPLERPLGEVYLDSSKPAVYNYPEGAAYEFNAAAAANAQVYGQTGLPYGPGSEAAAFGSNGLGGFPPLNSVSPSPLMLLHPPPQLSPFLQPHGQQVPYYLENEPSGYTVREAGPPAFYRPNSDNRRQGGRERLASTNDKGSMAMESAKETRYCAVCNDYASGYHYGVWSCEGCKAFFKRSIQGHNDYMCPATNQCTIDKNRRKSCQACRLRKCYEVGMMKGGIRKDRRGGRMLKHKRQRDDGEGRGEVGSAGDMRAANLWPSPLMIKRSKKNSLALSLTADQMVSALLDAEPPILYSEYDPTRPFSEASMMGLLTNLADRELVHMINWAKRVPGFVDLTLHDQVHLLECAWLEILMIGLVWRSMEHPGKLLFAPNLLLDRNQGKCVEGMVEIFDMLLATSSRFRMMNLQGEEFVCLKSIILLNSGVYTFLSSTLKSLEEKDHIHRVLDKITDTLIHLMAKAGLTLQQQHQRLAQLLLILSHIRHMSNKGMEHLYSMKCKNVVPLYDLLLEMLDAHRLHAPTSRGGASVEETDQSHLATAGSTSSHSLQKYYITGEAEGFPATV
Put plainly: ERα activation, luciferase reporter gene in U2OS-ERα osteosarcoma cells. It is filed as cell-based. The note with it: U2OS stably transfected with ERα, 24 h. Here is the method: U2OS cells are human, epithelially organized osteosarcoma cells originally isolated in 1964 from the tibia of a child by J. Ponten and E. Saksela (Ponten and Saksela 1967: Two established in vitro cell lines from human mesenchymal tumours, Int. J. Cancer 2: 434-447).
A suitable medium for the cells is DMEM/F12 (Dulbecco's modified Eagle's Medium), to which 10% fetal calf serum was added for culturing the cells, and 5% fetal calf serum was added for the actual experiment. The latter was previously made steroid-free (DCC medium) using dextran-coated activated carbon (dextran-coated charcoal; DCC). Incubation took place at 37° C. with 5% v/v CO2. In order to ensure comparability between the individual experiments, the passages of the cells used for the experiments never exceeded 20 after thawing from liquid nitrogen.
Besides native U2OS cells, use was made of U2OS-ERα cells (Schering A G, Berlin) which were stably transfected with ERα (pSG5 vector, Stratagene) and merely required transfection with the reporter gene (ERE)2-tk-Luc (pGL3 basic vector, Promega). […]
After the cells were treated with the test or control substances for 24 h it was possible to measure the luciferase activity as reporter gene using a kit from Promega, as stated by the manufacturer. The protein content was determined using the BCA® kit (Sigma).
In general terms: A reporter such as luciferase makes a cellular process visible.

A further series can be described thus: Solubility statements. The series is classed as physicochemical. An excerpt:
Use is made of this for its isolation. Since, besides other organic acids, the root in particular has a high content of oxalic acid (⅔ in water-soluble and ⅓ in bound form), this must be neutralized during the isolation in order to prevent the pH drifting into the acidic range and thus to inhibit premature precipitation of the rhaponticin. This is achieved by using calcium oxide. The latter is employed as quicklime solution with a pH of 12.4-12.6.
Hydroxypropylmethylcellulose (hypromellose USP) or another gel former is allowed to swell with 2-10% by weight in purified water. […] The amount of glycerol may be up to 50% of the weight of the gel. […] If necessary, preservatives (e.g. sorbic acid and its salts) can be added to the gel. Adjustment of the pH is also possible. As alternative to glycerol it is also possible to use 30-86% by volume ethanol.

Series [3] is described as follows: Pharmacokinetics of ERr 731 ingredients in the blood of a volunteer after oral intake (plasma LC-MS/MS). It is filed as in vivo, human. The conditions noted are these: for detection in the blood: oral 10 tablets = 40 mg ERr 731, plasma. Here is the method: Subsequently, 10 ml of blood was taken at various times (as indicated in FIG. 1) and the plasma was obtained by centrifugation.
as §1

Where [4] appears, read: Test A: 200 mg of dry extract in 50 ml of glycerol R.
The mark [5] stands for this setting: Test B: 200 mg of dry extract in 50 ml of ethanol 30% R.
The mark [6] stands for this setting: Test C: 200 mg of dry extract in 50 ml of ethanol 50% R.
Where [7] appears, read: Test D: 200 mg of dry extract in 50 ml of ethanol 86% R.

T1 sequence (Q92731 whole entry): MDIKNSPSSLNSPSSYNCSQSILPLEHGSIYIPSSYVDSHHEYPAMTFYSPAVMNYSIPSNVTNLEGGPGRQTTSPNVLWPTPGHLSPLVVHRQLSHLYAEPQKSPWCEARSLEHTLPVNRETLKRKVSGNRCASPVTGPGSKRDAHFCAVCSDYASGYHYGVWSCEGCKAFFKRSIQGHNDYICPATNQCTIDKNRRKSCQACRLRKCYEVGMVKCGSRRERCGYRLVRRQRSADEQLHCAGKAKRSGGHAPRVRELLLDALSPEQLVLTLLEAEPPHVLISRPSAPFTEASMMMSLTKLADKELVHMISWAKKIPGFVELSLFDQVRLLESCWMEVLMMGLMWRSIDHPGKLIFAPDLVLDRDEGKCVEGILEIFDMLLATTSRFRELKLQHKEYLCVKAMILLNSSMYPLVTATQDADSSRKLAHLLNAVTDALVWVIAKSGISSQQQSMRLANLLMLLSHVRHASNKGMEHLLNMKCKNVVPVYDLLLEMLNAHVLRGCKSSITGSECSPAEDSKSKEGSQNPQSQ

Take `COc1ccc(/C=C/c2cc(O)cc(O[C@@H]3O[C@H](CO)[C@@H](O)[C@H](O)[C@H]3O)c2)cc1` [deoxyrhaponticin, 3,5′-Dihydroxy-4′-methoxystilbene 3-O-β-D-glucopyranoside]: the “content found in solution” value in series [1] (setting [4]) was 27.1% deoxyrhaponticin; in series [1] (setting [5]), 25.2% deoxyrhaponticin; in series [1] (setting [6]) it was 29.0% deoxyrhaponticin; in series [1] (setting [7]), 29.5% deoxyrhaponticin. The “dissolved, of theory” value in series [1] (setting [4]) is listed as “(90.6% of theory)”; in series [1] (setting [5]), “(84.2% of theory)”; in series [1] (setting [6]), “(97.0% of theory)”; in series [1] (setting [7]), “(98.7% of theory)”. Moreover, the “detection / accumulation (AUC 0-24 h) in dog plasma” value (shortened to “detection / accumulation”) in series [2] is “dose-dependent accumulation”.
Turning to `Oc1cc(O)cc(/C=C/c2ccc(O)c(O)c2)c1` [piceatannol, Piceatannol (astringenin)], the “activation of ERβ” value at ERβ is reported as “activate relatively specifically only the ERβ”. The “activation of ER-α” value at ERα is recorded as “no significant effects; also recorded: no activation”.
Regarding `Oc1ccc(/C=C/c2cc(O)cc(O)c2)cc1` [resveratrol, Resveratrol], on ERα, the “activation of ER-α” value is reported as “no significant effects; also recorded: no activation”.
Consider `COc1ccc(C=Cc2cc(O)cc(O[C@@H]3O[C@H](CO)[C@@H](O)[C@H](O)[C@H]3O)c2)cc1O` [rhaponticin, 3,3′,5-Trihydroxy-4′-methoxystilbene 3-O-β-D-glucopyranoside], for which, in the series “Solubility statements” (alkaline pH), the “solubility in aqueous solutions with an alkaline pH range” value is “readily soluble”. For the same compound, the “behaviour in the acidic pH range” value in “Solubility statements” (pH 3.4-3.6) is given as “precipitated”. Also, the “time of maximum in the blood” value in series [3] (oral 40 mg ERr 731) fell in the range of 3 to 4 h. Moreover, the “detection in the blood” value in series [3] is “detected; also recorded: detectable”. Also, the “content found in solution” value in series [1] (setting [4]) turned out to be 55.1% rhaponticin; in series [1] (setting [5]) it was 52.2% rhaponticin; in series [1] (setting [6]), 58.8% rhaponticin; in series [1] (setting [7]), 59.8% rhaponticin. Further, the “dissolved, of theory” value was “(89.0% of theory)” in series [1] (setting [4]), “(84.3% of theory)” in series [1] (setting [5]), “(95.0% of theory)” in series [1] (setting [6]) and “(96.6% of theory)” in series [1] (setting [7]). Moreover, the “detection / accumulation” value in series [2] is recorded as “dose-dependent accumulation”.
On to `COc1ccc(/C=C/c2cc(O)cc(O)c2)cc1O` [rhapontigenin, 3,3′,5-Trihydroxy-4′-methoxystilbene], for which the “detection in the blood” value in series [3] was “could not be found and not”. In addition, in series [2], the “detection / accumulation” value is reported as “undetectable”.
